Reference: ChEMBL document CHEMBL1152363 (Bioorg Med Chem Lett, 2009)

How the values were obtained:
Dipeptidyl peptidase 4 = Dipeptidyl peptidase 4 (Homo sapiens, UniProt P27487); assay: Inhibition of DPP4 by continuous fluorimetric assay
[1] = Metabolic stability in rat liver microsomes assessed as turnover after 60 mins; type: ADME, Microsome; conditions: read-out: Stability

Sequence of Dipeptidyl peptidase 4 (P27487 whole entry): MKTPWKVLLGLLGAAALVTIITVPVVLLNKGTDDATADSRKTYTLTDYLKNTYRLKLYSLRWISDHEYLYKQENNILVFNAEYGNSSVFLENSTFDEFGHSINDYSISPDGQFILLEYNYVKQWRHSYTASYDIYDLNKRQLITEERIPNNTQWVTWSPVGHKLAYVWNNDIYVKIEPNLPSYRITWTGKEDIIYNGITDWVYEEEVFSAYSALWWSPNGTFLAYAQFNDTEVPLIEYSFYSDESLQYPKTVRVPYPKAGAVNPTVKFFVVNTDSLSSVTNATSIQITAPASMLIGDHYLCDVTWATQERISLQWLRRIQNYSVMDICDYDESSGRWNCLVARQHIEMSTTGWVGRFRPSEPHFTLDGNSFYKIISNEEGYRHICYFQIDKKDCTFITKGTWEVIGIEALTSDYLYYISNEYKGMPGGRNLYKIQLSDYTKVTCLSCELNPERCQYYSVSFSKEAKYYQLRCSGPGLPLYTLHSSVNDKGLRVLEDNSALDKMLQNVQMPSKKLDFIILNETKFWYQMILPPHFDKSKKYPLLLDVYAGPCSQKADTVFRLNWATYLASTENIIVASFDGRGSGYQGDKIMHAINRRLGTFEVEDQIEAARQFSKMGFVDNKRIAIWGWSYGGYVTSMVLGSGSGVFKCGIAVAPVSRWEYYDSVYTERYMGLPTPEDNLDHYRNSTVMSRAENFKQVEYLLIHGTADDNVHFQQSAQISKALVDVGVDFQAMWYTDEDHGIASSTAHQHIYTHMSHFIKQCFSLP

| SMILES | IC50 (Dipeptidyl peptidase 4) | metabolised at 1 h [1] |
| --- | --- | --- |
| N[C@@H](CC(=O)N1CCC[C@H]1CNC(=O)c1cccc(F)c1)Cc1ccccc1F | 0.092 µM | – |
| N[C@@H](CC(=O)N1CCC[C@H]1CNC(=O)c1ccc(F)cc1)Cc1ccccc1F | 0.092 µM | – |
| CS(=O)(=O)c1ccc(C(=O)NC[C@@H]2CCCN2C(=O)C[C@H](N)Cc2ccccc2F)cc1 | 0.077 µM | – |
| N[C@@H](CC(=O)N1CCC[C@H]1CNS(=O)(=O)c1cccc(F)c1)Cc1ccccc1F | 0.094 µM | – |
| N[C@@H](CC(=O)N1CCC[C@H]1CNC(=O)c1cccnc1)Cc1ccccc1F | 0.087 µM | – |
| N[C@@H](CC(=O)N1CCC[C@H]1CNC(=O)c1ccncc1)Cc1ccccc1F | 0.066 µM | – |
| N[C@@H](CC(=O)N1CCC[C@H]1CNC(=O)c1ccccc1)Cc1ccccc1F | – | 76% |

More lines, now with the values ahead:

| IC50 (Dipeptidyl peptidase 4) | metabolised at 1 h [1] | SMILES |
| --- | --- | --- |
| 0.047 µM | – | N[C@@H](CC(=O)N1CCC[C@H]1CNC(=O)c1ccccn1)Cc1ccccc1F |
| 0.024 µM | – | N[C@@H](CC(=O)N1CCC[C@H]1CNS(=O)(=O)c1cc(Cl)ccc1Cl)Cc1ccccc1F |
| 0.027 µM | – | N[C@@H](CC(=O)N1CCC[C@H]1CNS(=O)(=O)c1ccc(F)cc1)Cc1ccccc1F |
| 0.049 µM | – | N[C@@H](CC(=O)N1CCC[C@H]1CNC(=O)c1ccccc1F)Cc1ccccc1F |
| 0.027 µM | – | N[C@@H](CC(=O)N1CCC[C@H]1CNC(=O)c1ccccc1)Cc1cccc(Cl)c1 |
| 0.027 µM | – | CS(=O)(=O)c1ccccc1C(=O)NC[C@@H]1CCCN1C(=O)C[C@H](N)Cc1ccccc1F |
| 0.02 µM | – | N[C@@H](CC(=O)N1CCC[C@H]1CNS(=O)(=O)c1ccc(Cl)cc1)Cc1ccccc1F |
